Data reported in patent US12421232B2, “Kinase inhibitor compounds and compositions and methods of use” (ICAHN SCHOOL OF MEDICINE AT MOUNT SINAI, priority 2018, dated 2025).
Like-named read-outs stand apart in the source and are kept apart here. Marks after values point to notes of the source that are not given here.

Columns and labels:
FLT3-autoinhibited = target: T1, FLT3-autoinhibited (Homo sapiens, UniProt P36888); test: KINOMEscan Assay (DiscoverX); assay type: binding; settings: read-out: % DMSO Ctrl
T1 construct: purchased DiscoverX
T1 sequence (P36888 564-993 limits assumed): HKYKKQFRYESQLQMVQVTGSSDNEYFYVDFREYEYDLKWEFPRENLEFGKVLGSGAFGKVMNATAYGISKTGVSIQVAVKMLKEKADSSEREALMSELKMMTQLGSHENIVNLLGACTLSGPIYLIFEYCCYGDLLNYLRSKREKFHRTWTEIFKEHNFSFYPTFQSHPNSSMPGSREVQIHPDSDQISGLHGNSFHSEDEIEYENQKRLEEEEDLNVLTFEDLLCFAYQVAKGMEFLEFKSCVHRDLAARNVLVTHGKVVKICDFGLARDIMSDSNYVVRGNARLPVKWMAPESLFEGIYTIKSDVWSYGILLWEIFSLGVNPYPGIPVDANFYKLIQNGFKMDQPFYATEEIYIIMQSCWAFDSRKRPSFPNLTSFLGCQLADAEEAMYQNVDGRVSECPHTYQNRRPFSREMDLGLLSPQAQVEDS

[1] = test system: human β-cells (dispersed human islet cells); test: Human β-cell proliferation assay (Ki67 and insulin staining); assay type: cell-based
PIKFYVE = target: T2, PIKFYVE (Homo sapiens, UniProt Q9Y2I7); test: KINOMEscan Assay (DiscoverX); assay type: binding; settings: read-out: % DMSO Ctrl
T2 construct: purchased DiscoverX

SGK = target: T3, SGK (Homo sapiens, UniProt O00141); test: KINOMEscan Assay (DiscoverX); assay type: binding; settings: read-out: % DMSO Ctrl
T3 construct: purchased DiscoverX
T3 sequence (O00141 1-431): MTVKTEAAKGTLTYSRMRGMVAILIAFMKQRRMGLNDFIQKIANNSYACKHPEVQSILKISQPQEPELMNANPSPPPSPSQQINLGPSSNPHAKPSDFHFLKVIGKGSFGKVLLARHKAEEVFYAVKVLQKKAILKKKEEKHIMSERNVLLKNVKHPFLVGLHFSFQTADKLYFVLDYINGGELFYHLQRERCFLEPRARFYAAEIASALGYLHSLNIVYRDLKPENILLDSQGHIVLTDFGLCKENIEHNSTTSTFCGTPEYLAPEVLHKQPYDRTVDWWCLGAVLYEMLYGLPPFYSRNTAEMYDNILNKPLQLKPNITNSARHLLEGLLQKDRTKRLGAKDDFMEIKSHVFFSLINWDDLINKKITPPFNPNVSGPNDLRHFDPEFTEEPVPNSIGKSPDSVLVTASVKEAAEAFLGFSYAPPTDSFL

CLK3 = target: T4, CLK3 (Homo sapiens, UniProt P49761); test: KINOMEscan Assay (DiscoverX); assay type: binding; settings: read-out: % DMSO Ctrl
T4 construct: purchased DiscoverX

PIP5K2C = target: T5, PIP5K2C (Homo sapiens, UniProt Q8TBX8); test: KINOMEscan Assay (DiscoverX); assay type: binding; settings: read-out: % DMSO Ctrl
T5 construct: purchased DiscoverX
T5 sequence (Q8TBX8 1-421): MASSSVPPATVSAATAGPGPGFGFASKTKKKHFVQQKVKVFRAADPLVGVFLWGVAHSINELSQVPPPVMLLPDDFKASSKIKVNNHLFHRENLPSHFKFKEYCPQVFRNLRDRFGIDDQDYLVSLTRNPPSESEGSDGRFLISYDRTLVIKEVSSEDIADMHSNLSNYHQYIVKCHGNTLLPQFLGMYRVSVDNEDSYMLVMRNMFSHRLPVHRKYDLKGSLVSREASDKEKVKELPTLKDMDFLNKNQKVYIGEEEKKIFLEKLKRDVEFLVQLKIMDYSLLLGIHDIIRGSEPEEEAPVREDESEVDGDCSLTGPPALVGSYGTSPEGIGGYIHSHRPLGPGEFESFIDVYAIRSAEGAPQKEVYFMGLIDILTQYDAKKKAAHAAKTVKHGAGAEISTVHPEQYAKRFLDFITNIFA

DAPK1 = target: T6, DAPK1 (Homo sapiens, UniProt P53355); test: KINOMEscan Assay (DiscoverX); assay type: binding; settings: read-out: % DMSO Ctrl
T6 construct: purchased DiscoverX

CLK1 = target: T7, CLK1 (Homo sapiens, UniProt P49759); test: KINOMEscan Assay (DiscoverX); assay type: binding; settings: read-out: % DMSO Ctrl
T7 construct: purchased DiscoverX

TGFBR2 = target: T8, TGFBR2 (Homo sapiens, UniProt P37173); test: KINOMEscan Assay (DiscoverX); assay type: binding; settings: read-out: % DMSO Ctrl
T8 construct: purchased DiscoverX

DRAK2 = target: T9, DRAK2 (Homo sapiens, UniProt O94768); test: KINOMEscan Assay (DiscoverX); assay type: binding; settings: read-out: % DMSO Ctrl
T9 construct: purchased DiscoverX

CDK8 = target: T10, CDK8 (Homo sapiens, UniProt P49336); test: KINOMEscan Assay (DiscoverX); assay type: binding; settings: read-out: % DMSO Ctrl
T10 construct: purchased DiscoverX

HIPK1 = target: T11, HIPK1 (Homo sapiens, UniProt Q86Z02); test: KINOMEscan Assay (DiscoverX); assay type: binding; settings: read-out: % DMSO Ctrl
T11 construct: purchased DiscoverX

CSNK1D = target: T12, CSNK1D (Homo sapiens, UniProt P48730); test: KINOMEscan Assay (DiscoverX); assay type: binding; settings: read-out: % DMSO Ctrl
T12 construct: purchased DiscoverX

CLK4 = target: T13, CLK4 (Homo sapiens, UniProt Q9HAZ1); test: KINOMEscan Assay (DiscoverX); assay type: binding; settings: read-out: % DMSO Ctrl
T13 construct: purchased DiscoverX

DYRK1A [2] = target: T14, DYRK1A (Homo sapiens, UniProt Q13627); test: KINOMEscan Assay (DiscoverX); assay type: binding; design: purchased Life Technologies
CSNK2A2 = target: T15, CSNK2A2 (Homo sapiens, UniProt P19784); test: KINOMEscan Assay (DiscoverX); assay type: binding; settings: read-out: % DMSO Ctrl
T15 construct: purchased DiscoverX

CDK11 = target: T16, CDK11 (Homo sapiens, UniProt Q9BWU1); test: KINOMEscan Assay (DiscoverX); assay type: binding; settings: read-out: % DMSO Ctrl
T16 construct: purchased DiscoverX

CLK2 = target: T17, CLK2 (Homo sapiens, UniProt P49760); test: KINOMEscan Assay (DiscoverX); assay type: binding; settings: read-out: % DMSO Ctrl
T17 construct: purchased DiscoverX

DAPK3 = target: T18, DAPK3 (Homo sapiens, UniProt O43293); test: KINOMEscan Assay (DiscoverX); assay type: binding; settings: read-out: % DMSO Ctrl
T18 construct: purchased DiscoverX

CDKL5 = target: T19, CDKL5 (Homo sapiens, UniProt O76039); test: KINOMEscan Assay (DiscoverX); assay type: binding; settings: read-out: % DMSO Ctrl
T19 construct: purchased DiscoverX

CIT = target: T20, CIT (Homo sapiens, UniProt O14578); test: KINOMEscan Assay (DiscoverX); assay type: binding; settings: read-out: % DMSO Ctrl
T20 construct: purchased DiscoverX

DAPK2 = target: T21, DAPK2 (Homo sapiens, UniProt Q9UIK4); test: KINOMEscan Assay (DiscoverX); assay type: binding; settings: read-out: % DMSO Ctrl
T21 construct: purchased DiscoverX

CSNK1E = target: T22, CSNK1E (Homo sapiens, UniProt P49674); test: KINOMEscan Assay (DiscoverX); assay type: binding; settings: read-out: % DMSO Ctrl
T22 construct: purchased DiscoverX

VPS34 = target: T23, VPS34 (Homo sapiens, UniProt Q8NEB9); test: KINOMEscan Assay (DiscoverX); assay type: binding; settings: read-out: % DMSO Ctrl
T23 construct: purchased DiscoverX

DYRK1A [3] = target: T14, DYRK1A; test: FRET-based LanthaScreen Eu Kinase Binding Assay (Life Technologies)

T2 sequence (Q9Y2I7 whole entry): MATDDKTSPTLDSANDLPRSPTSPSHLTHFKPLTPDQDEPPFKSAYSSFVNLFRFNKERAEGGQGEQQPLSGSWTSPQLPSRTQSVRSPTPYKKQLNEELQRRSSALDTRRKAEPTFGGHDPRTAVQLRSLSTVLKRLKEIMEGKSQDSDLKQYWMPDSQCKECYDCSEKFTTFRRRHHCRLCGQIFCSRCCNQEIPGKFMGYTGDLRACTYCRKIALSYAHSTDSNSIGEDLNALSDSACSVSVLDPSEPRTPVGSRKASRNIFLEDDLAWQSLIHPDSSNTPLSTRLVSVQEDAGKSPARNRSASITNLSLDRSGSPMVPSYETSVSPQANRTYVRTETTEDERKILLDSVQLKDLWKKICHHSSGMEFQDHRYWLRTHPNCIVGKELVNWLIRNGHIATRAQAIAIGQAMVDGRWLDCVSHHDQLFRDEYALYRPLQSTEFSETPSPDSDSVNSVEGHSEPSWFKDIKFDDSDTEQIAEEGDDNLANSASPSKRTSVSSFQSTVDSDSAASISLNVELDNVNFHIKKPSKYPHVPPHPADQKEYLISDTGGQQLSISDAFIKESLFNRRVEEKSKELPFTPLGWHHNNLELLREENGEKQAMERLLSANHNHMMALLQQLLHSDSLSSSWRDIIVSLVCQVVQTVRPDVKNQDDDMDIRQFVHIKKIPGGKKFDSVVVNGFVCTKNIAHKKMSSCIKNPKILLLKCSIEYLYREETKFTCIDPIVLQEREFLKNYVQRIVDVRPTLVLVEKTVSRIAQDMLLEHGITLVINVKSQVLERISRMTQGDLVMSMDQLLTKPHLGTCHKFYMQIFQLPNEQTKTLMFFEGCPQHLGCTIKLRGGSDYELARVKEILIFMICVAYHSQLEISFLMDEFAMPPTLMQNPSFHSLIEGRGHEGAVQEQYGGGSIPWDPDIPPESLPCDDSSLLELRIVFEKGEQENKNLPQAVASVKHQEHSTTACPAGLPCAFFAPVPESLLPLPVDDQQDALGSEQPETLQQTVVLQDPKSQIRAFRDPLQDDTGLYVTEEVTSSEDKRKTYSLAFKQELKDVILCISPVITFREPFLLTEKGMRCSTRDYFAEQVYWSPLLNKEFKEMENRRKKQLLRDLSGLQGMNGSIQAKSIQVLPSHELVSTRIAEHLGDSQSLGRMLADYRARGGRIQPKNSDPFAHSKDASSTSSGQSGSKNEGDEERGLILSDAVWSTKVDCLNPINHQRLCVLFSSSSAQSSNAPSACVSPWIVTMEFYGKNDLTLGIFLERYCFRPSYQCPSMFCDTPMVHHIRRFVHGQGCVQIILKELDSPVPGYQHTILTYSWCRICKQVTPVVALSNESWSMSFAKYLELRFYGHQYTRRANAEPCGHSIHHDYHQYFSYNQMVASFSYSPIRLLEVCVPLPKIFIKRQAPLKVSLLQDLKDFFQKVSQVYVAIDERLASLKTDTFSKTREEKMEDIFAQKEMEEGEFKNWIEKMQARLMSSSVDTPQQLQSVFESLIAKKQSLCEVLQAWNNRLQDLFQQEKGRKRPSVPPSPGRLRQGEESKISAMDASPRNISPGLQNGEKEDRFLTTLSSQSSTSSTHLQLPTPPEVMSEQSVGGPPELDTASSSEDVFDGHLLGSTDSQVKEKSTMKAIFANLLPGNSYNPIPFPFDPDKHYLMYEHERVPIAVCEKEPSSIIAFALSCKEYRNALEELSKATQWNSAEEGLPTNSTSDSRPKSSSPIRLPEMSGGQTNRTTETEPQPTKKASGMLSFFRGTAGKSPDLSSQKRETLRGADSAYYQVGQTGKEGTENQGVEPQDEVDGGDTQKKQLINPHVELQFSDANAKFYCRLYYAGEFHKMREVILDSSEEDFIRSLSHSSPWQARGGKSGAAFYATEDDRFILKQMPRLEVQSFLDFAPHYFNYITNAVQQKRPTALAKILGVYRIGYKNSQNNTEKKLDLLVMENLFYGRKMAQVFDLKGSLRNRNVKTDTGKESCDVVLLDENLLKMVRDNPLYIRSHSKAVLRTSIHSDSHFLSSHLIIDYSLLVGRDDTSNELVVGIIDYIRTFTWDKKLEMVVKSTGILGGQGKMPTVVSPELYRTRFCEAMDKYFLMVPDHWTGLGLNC
T4 sequence (P49761 whole entry): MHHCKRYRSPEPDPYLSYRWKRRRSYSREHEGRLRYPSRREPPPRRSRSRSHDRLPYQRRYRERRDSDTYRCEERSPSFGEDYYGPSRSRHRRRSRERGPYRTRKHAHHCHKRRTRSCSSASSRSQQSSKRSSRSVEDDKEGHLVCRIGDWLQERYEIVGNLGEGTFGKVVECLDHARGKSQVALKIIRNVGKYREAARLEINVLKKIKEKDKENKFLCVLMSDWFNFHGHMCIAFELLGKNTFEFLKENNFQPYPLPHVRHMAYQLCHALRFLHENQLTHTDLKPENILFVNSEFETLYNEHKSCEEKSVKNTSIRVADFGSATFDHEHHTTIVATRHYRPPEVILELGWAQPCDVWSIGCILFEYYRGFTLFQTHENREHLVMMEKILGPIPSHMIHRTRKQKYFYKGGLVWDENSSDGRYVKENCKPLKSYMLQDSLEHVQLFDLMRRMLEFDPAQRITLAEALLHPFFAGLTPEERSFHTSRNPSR
T16 sequence (Q9BWU1 whole entry): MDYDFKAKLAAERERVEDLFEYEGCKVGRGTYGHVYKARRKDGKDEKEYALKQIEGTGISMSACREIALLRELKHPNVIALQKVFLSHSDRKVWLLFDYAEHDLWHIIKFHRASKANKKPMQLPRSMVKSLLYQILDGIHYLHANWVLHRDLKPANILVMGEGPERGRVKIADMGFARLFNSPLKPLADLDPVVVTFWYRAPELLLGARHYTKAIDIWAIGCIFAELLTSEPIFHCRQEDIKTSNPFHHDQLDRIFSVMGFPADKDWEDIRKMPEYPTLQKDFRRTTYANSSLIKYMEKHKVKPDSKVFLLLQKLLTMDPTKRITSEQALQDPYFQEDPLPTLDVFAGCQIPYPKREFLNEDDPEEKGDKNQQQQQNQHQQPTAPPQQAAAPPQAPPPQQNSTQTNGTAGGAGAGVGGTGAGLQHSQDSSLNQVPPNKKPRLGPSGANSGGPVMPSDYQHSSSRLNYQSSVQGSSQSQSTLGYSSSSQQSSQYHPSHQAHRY
T12 sequence (P48730 whole entry): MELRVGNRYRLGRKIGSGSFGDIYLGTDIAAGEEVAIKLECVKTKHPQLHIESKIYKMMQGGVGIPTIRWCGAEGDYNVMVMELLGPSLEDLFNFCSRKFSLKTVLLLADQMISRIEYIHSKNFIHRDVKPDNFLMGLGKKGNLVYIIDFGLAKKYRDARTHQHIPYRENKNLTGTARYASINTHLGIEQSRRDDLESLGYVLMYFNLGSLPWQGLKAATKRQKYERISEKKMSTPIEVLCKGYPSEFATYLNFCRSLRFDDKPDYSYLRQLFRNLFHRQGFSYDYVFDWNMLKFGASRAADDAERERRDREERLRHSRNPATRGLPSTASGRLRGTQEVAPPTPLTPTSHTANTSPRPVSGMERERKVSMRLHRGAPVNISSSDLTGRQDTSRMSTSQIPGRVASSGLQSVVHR
T23 sequence (Q8NEB9 whole entry): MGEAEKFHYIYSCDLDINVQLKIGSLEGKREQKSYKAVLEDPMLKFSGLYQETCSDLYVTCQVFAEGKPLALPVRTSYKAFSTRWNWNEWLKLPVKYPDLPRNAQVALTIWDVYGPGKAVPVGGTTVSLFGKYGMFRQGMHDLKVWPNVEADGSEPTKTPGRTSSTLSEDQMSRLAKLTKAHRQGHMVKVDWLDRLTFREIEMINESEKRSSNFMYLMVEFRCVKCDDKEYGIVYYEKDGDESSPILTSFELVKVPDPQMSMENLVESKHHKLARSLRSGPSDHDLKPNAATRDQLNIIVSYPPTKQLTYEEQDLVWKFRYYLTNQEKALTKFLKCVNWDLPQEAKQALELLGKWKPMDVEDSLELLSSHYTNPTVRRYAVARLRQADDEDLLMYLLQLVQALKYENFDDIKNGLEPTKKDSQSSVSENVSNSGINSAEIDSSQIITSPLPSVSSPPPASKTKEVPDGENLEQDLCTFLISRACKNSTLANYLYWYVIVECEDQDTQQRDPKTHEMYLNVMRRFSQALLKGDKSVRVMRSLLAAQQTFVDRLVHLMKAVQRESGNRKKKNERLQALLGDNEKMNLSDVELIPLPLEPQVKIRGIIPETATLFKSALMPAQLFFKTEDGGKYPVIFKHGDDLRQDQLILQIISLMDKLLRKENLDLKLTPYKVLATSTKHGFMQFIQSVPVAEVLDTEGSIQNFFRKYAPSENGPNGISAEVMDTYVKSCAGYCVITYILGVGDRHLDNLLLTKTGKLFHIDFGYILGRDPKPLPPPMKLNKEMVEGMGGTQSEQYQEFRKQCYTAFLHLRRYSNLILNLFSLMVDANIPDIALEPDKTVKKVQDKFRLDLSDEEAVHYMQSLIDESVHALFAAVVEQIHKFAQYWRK
T15 sequence (P19784 whole entry): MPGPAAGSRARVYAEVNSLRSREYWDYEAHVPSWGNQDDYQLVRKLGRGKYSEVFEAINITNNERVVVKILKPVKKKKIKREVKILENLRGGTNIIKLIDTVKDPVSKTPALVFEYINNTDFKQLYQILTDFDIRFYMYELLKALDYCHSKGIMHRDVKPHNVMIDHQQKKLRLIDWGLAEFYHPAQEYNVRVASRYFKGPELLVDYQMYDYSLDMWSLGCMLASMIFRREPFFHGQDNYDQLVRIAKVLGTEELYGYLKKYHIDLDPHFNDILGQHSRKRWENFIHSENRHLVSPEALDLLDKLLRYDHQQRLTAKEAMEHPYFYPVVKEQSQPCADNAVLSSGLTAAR

Row | Compound | remaining binding at 10 µM (DAPK1) [%] | remaining binding at 10 µM (CLK1) [%] | remaining binding at 10 µM (TGFBR2) [%] | remaining binding at 10 µM (DRAK2) [%] | remaining binding at 10 µM (CDK8) [%] | remaining binding at 10 µM (HIPK1) [%] | remaining binding at 10 µM (CSNK1D) [%] | remaining binding at 10 µM (CLK4) [%] | remaining binding at 10 µM (FLT3-autoinhibited) [%] | remaining binding at 10 µM (PIKFYVE) [%] | remaining binding at 10 µM (CSNK2A2) [%] | remaining binding at 10 µM (CDK11) [%] | remaining binding at 10 µM (CLK2) [%] | remaining binding at 10 µM (DAPK3) [%] | remaining binding at 10 µM (CDKL5) [%] | remaining binding at 10 µM (CIT) [%] | remaining binding at 10 µM (SGK) [%] | remaining binding at 10 µM (CLK3) [%] | remaining binding at 10 µM (DAPK2) [%] | remaining binding at 10 µM (CSNK1E) [%] | other results
1 | COc1ccc2c(c1)[nH]c1c(C)nc(CO)cc12 [Compound 2-8, (1-Methyl-7-methoxy-9H-pyrido[3,4-b]indol-3-yl)methanol] | – | – | – | – | – | – | – | – | – | – | – | – | – | – | – | – | – | – | – | – | remaining binding at 10 µM (FLT3-autoinhibited; FLT3-autoinhibited, 10 μM): 100%; beta cell toxicity [1]: did not cause toxicity; remaining binding at 10 µM (PIKFYVE; PIKFYVE, 10 μM): 88%; remaining binding at 10 µM (SGK; SGK, 10 μM): 31%; remaining binding at 10 µM (CLK3; CLK3, 10 μM): 36%; remaining binding at 10 µM (PIP5K2C; PIP5K2C, 10 μM): 5%
2 | COc1ccc2c3ccnc(C)c3n(CCCc3noc(N)n3)c2c1 [Compound 20-13, 3-(3-(7-Methoxy-1-methyl-β-carbolin-9-yl)propyl)-5-amino-1,2,4-oxadiazole] | 91 | 4.1 | 100 | 100 | 100 | 9.5 | 65 | 1.7 | 85 | 3.2 | 50 | 81 | 4.2 | 91 | 21 | 66 | 90 | 54 | 92 | 61 | human β-cell proliferation (in words) ([1]; 5 μM, versus harmine at 10 μM): induced Human 3-Cell proliferation to a greater extent that harmine; % DMSO Ctrl (DYRK1A [2]; DYRK1A, 10 μM): 0 ^b % DMSO Ctrl; remaining binding at 10 µM (PIP5K2C): 13%; remaining binding at 10 µM (VPS34): 42%
3 | C#CCn1c2cc(OC)ccc2c2ccnc(C)c21 [Compound 20-23a, 3-(7-Methoxy-1-methyl-β-carbolin-9-yl)-propan-1-yne] | 89 | 1.9 | 98 | 100 | 26 | 12 | 38 | 1.1 | 100 | 60 | 54 | 40 | 0.9 | 75 | 22 | 26 | 63 | 19 | 70 | 26 | IC50 (DYRK1A [3]): 8 nM; remaining binding at 10 µM (DYRK1A [2]; read-out: % DMSO Ctrl): 0%; remaining binding at 10 µM (PIP5K2C): 41%; remaining binding at 10 µM (VPS34; VPS34, 10 μM): 89%
